From patent publication US4746675A, “External pharmaceutical composition” (Teijin Limited, priority 1983, dated 1988)

Key:
[1] = tested on: serum calcium level; assay: serum calcium after intrarectal administration of calcitonin composition to rats; assay type: in vivo, rat; settings: versus the comparative suppository
From the text: Cacao butter (93 parts by weight) and 7 parts by weight of compound (168) or compound (173) were uniformly mixed, and (Asu^1.7)-eel calcitonin was gradually added and mixed to form a uniform composition. The composition was slightly warmed, and placed into a suppository container to form a suppository for rats having a diameter of about 3 mm and a length of about 6 mm. This suppository contained 0.7 MRC unit of calcitonin. The suppository was intrarectally administered to a rat, and the concentration of calcium in the blood serum after administration was measured by using a calcium measuring kit (made by Iatoron Co.).
Various […] were prepared from cacao butter, the various penetration enhancers shown in Table 12 and [Asu^1.7 ]-eel calcitonin, and tested in the same way as in Example 85.

[2] = tested on: carrageenan edema; assay: carrageenan edema inhibiting effect of betamethasone valerate ointments; assay type: in vivo, rat; settings: for Percentage inhibition based on the control: 0.15% betamethasone valerate, 9.85% Compound (168) or none; for Percentage inhibition vs. control: Table 5, betamethasone valerate ointment with penetration enhancer
Experimental: An ointment was prepared from 0.15 part by weight of betamethasone valerate, 9.85 parts by weight of compound (168) and 90 parts by weight of the hydrophilic ointment.
In accordance with the method of R. Passarella et al. [Argneim. Forsch 30, (I), Nr. 4, 647-651 (1980)], the carrageenan edema inhibiting effect of the above ointment was examined. Specifically, 0.1 ml of a 1% carrageenan suspension in 0.9% NaCl solution was injected into the tip of the right leg of a rat (body weight 150-175 g). The foot volume was measured immediately after administration of carrageenan and 3, 5, and 6 hours after the administration by means of a mercury displacement device. 0.5, 1 and 2 hours after the administration of carrageenan, 100 mg of the ointment was well […] into each of the sites which underwent inflammation.
Various ointments were prepared from 0.15 part by weight of betamethasone valerate, […] of the various penetration enhancers shown in Table 5, and 85 parts by weight of the hydrophilic ointment, and tested in the same way as in Example 23.

[3] = concentration of cephalothin sodium in blood after intrarectal administration of suppository; assay type: in vivo, Beagle dog; settings: versus the comparative suppository
Experimental: Eighty parts by weight of cacoa butter, 10 parts by weight of compound (168) and 10 parts by weight of cephalothin sodium were uniformly mixed and then slightly warmed. The mixture was filled in a suppository container to form a suppository containing 1 g of the mixture. The suppository was administered intrarectally to a Beagle dog, and the concentration of cephalothin sodium in the blood after administration was measured by the cup method.

[4] = tested on: blood glucose level; assay: blood glucose after intrarectal administration of hog insulin suppository to rabbits; assay type: in vivo, rabbit; settings: for Percent decrease of the blood glucose level from that before the administration: hog insulin 9.6 units, intrarectal, rabbit; for absorption of insulin from the suppository: versus the comparative suppository
Experimental: Sixty parts by weight of fractionated coconut oil and 10 parts by weight of compound (168) or compound (173) were uniformly mixed, and then hog insulin was gradually added to form a uniform dispersion. The dispersion was filled in a gelatin capsule for suppositories to form a gelatin capsular suppository. These suppository contained 9.6 units of insulin. The suppository was intrarectally administered to a rabbit, and the blood glucose level after administration was measured by the glucose oxidase method.

[5] = tested on: eye (cornea, iris, conjunctiva); assay: primary eye irritation (Draize) in rabbits; assay type: in vivo, white native male rabbits; settings: 2.4% soln, average of three rabbits
Experimental: enhancers of this invention shown in Table 17 was applied dropwise to one eye of white native male rabbits (body weight 2.0 to 3.0 kg; 3 per group) which, it had been ascertained, were free from any trouble at the cornea, iris and conjunctiva. Nothing was applied to the other eye. Thus, irritation of the absorption aid to the mucous membrane of the eyes were examined, and scores were calculated in accordance with the Draize's eye irritation evaluating method [Association of Foods, "Drugs and Cosmetics" (1957)].
As a control, sodium laurylsulfate, a kind of surface-active agent, was evaluated in the same way, and the results are also shown in Table 17.

[6] = concentration of indomethacin in rat blood after application of ointment to the back; settings: for Concentration of indomethacin in the blood: rat, in vivo
Experimental: An ointment was prepared from 1 part by weight of indomethacin, 10 parts by weight of compound (168) and 89 parts by weight of a hydrophilic ointment (composed of 250 parts of white Vaseline, 220 parts by weight of stearyl alcohol, 120 parts by weight of propylene glycol, 15 parts by weight of sodium laurylsulfate, 0.25 part by weight of ethyl p-hydroxybenzoate, 0.15 part by weight of propyl p-hydroxybenzoate and a small amount of purified water). The back of a rat (body weight about 250 g) was cut by an electric hair-clipper, and 100 mg of the resulting ointment was applied by a finger to a circular unhaired portion, 4 cm in diameter. The blood was drawn from the tail of the rat periodically, and the concentration of indomethacin in the blood was determined periodically by high-performance liquid chromatography.
Various ointments were prepared from 1 part by weight of indomethacin, 10 parts of each of various penetration enhancers shown in Table 2 and the hydrophilic ointment, and tested as in Example 1.

[7] = tested on: serum calcium level; assay: serum calcium after nasal administration of calcitonin nasal drop to rabbits; assay type: in vivo, New Zealand white male rabbit; settings: for Percent decrease of the serum calcium level from before administration: [Asu^1.7]-eel calcitonin nasal drop, 15 units/50 μl, rabbit
Experimental: This nasal drop contained 15 units/50 μl of calcitonin. Fifty microliters of the nasal drop was administered to the nasal cavity of a New Zealand white male rabbit, and the concentration of calcium in the serum after administration was measured by using a calcium measuring kit (made by Iatron Co.).

[8] = diffusion of drug through egg shell membrane in diffusion cell; assay type: in vitro ADME; settings: 30 minutes; drug 0.05% with compound (168) 1.0% on donor side; drug alone = 100; 37° C.
Experimental: A diffusion cell was partitioned by an egg shell membrane. […] While maintaining a temperature of 37° C., the two liquid phases were stirred, and after a lapse of a predetermined period of time, the amount of the drug which diffused into the acceptor side from the donor side was measured.
The diffusion cell used was a glass cell for use in an ordinary diffusion experiment. The egg shell was obtained by removing the contents of an egg from the shell, immersing the shell in 0.7% acetic acid for 30 minutes, subjecting it to ultrasonication for 15 minutes, and carefully peeling the membrane from the shell.
A control test was carried out in the same way as above except that only the drug was added to the donor side.
The amount of the drug which diffused to the acceptor side was measured 30 minutes later, and compared with the control.
The relative amount of the drug diffused from the drug-penetration enhancer system was calculated by taking the amount of the drug diffused from the control donor side as 100. […] Bull., Vol. 20, p.

Structure (SMILES): CCCCCCCC/C=C\CCCCCCCC(=O)OCC(O)COC(=O)[C@@H]1CCC(=O)N1 (stereo partly drawn) [Compound (168), 2-hydroxy-3-oleoyloxy-1-pyroglutamyloxypropane]
- absorption of calcitonin from the suppository [1]: better
- Percentage inhibition based on the control ([2]; 3 hrs): 19.7%
- Percentage inhibition based on the control ([2]; 5 hrs): 36.8%
- Percentage inhibition based on the control ([2]; 6 hrs): 39.2%
- absorption of cephalothin sodium from the suppository [3]: better
- Percent decrease of the blood glucose level from that before the administration ([4]; 30 min): 32.8%
- Percent decrease of the blood glucose level from that before the administration ([4]; 1 hr): 36.3%
- Percent decrease of the blood glucose level from that before the administration ([4]; 2 hrs): 19.1%
- Percent decrease of the blood glucose level from that before the administration ([4]; 3 hrs): 5.2%
- absorption of insulin from the suppository [4]: better
- Primary irritation score, Conjunctiva ([5]; 1 hour): 2.0
- Primary irritation score, Cornea ([5]; 1 hour): 0
- Primary irritation score, Iris ([5]; 1 hour): 0
- Primary irritation score, Total ([5]; 1 hour): 2.0
- Primary irritation score, Conjunctiva ([5]; 3 hours): 2.0
- Primary irritation score, Cornea ([5]; 3 hours): 0
- Primary irritation score, Iris ([5]; 3 hours): 0
- Primary irritation score, Total ([5]; 3 hours): 2.0
- Primary irritation score, Conjunctiva ([5]; 6 hours): 1.3
- Primary irritation score, Cornea ([5]; 6 hours): 0
- Primary irritation score, Iris ([5]; 6 hours): 0
- Primary irritation score, Total ([5]; 6 hours): 1.3
- Primary irritation score, Conjunctiva ([5]; 24 hours): 0
- Primary irritation score, Cornea ([5]; 24 hours): 0
- Primary irritation score, Iris ([5]; 24 hours): 0
- Primary irritation score, Total ([5]; 24 hours): 0
- Primary irritation score, Conjunctiva ([5]; 48 hours): 0
- Primary irritation score, Cornea ([5]; 48 hours): 0
- Primary irritation score, Iris ([5]; 48 hours): 0
- Primary irritation score, Total ([5]; 48 hours): 0
- Primary irritation score, Conjunctiva ([5]; 72 hours): 0
- Primary irritation score, Cornea ([5]; 72 hours): 0
- Primary irritation score, Iris ([5]; 72 hours): 0
- Primary irritation score, Total ([5]; 72 hours): 0
- Primary irritation score, Conjunctiva ([5]; 96 hours): 0
- Primary irritation score, Cornea ([5]; 96 hours): 0
- Primary irritation score, Iris ([5]; 96 hours): 0
- Primary irritation score, Total ([5]; 96 hours): 0
- Primary irritation score, Conjunctiva ([5]; 168 hours): 0
- Primary irritation score, Cornea ([5]; 168 hours): 0
- Primary irritation score, Iris ([5]; 168 hours): 0
- Primary irritation score, Total ([5]; 168 hours): 0
- absorption of indomethacin from the ointment ([6]; versus the comparative ointments): better
- Percent decrease of the serum calcium level from before administration ([7]; 1 hr): 6.1%
- Percent decrease of the serum calcium level from before administration ([7]; 2 hrs): 4.0%
- Percent decrease of the serum calcium level from before administration ([7]; 3 hrs): 1.8%
- Percent decrease of the serum calcium level from before administration ([7]; 5 hrs): 0.9%
- absorption of calcitonin from the nasal composition ([7]; versus the comparative composition): better

Structure (SMILES): CCCCCCCCCCCCCCCCCC(=O)OCC(O)COC(=O)[C@@H]1CCC(=O)N1 (stereo partly drawn) [Compound (173), 2-hydroxy-3-octadecanoyloxy-1-pyroglutamyloxypropane]
- absorption of calcitonin from the suppository [1]: better
- Percentage inhibition vs. control ([2]; 3 hrs): 15.3%
- Percentage inhibition vs. control ([2]; 5 hrs): 32.3%
- Percentage inhibition vs. control ([2]; 6 hrs): 33.4%
- Percent decrease of the blood glucose level from that before the administration ([4]; 30 min): 29.4%
- Percent decrease of the blood glucose level from that before the administration ([4]; 1 hr): 33.3%
- Percent decrease of the blood glucose level from that before the administration ([4]; 2 hrs): 18.6%
- Percent decrease of the blood glucose level from that before the administration ([4]; 3 hrs): 3.7%
- absorption of insulin from the suppository [4]: better

Structure (SMILES): O=C1CC[C@@H](C(=O)O)N1 [Pyroglutamic acid, pyroglutamic acid]
- Concentration of indomethacin in the blood ([6]; 60 min): 1.4 µg/mL
- Concentration of indomethacin in the blood ([6]; 180 min): 2.2 µg/mL
- Concentration of indomethacin in the blood ([6]; 300 min): 2.0 µg/mL
- Concentration of indomethacin in the blood ([6]; 420 min): 1.8 µg/mL
- Concentration of indomethacin in the blood ([6]; 1440 min): 0.7 µg/mL

Structure (SMILES): CCN(CC)CCOC(=O)c1ccc(N)cc1 [Procaine]
- Relative amount of the drug diffused [8]: 149

Structure (SMILES): CN1C(=O)CN=C(c2ccccc2)c2cc(Cl)ccc21 [Diazepam]
- Relative amount of the drug diffused [8]: 144

Structure (SMILES): CC1(C)O[C@@H]2C[C@H]3[C@@H]4CCC5=CC(=O)C=C[C@]5(C)[C@@]4(F)[C@@H](O)C[C@]3(C)[C@]2(C(=O)CO)O1 [Triamcinolone acetonide]
- Relative amount of the drug diffused [8]: 214

Structure (SMILES): O=c1[nH]cc(F)c(=O)[nH]1 [5-Fluorouracil]
- Relative amount of the drug diffused [8]: 208
